Here are results for 17 molecules from patent publication US9681664B2, “Macrocyclic picolinamides as fungicides” (Dow Agrosciences LLC, priority 2012, dated 2017).

What all share (assay type): in vivo
Assay [1] relates to Mycosphaerella graminicola; Anamorph: Septoria tritici. Description: Leaf blotch of wheat (SEPTTR) disease control on wheat seedlings. Particulars: for pest or weed control at 100 ppm / pest or weed control at 121.5 g/ha: Zymoseptoria tritici; for pest or weed control at 121.5 g/ha: low volume application, 121.5 g/H; for pest or weed control at 100 ppm / SEPTTR 1DP disease control / SEPTTR 3DC disease control: 100 ppm. The procedure, abridged: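 Wheat seedlings (Yuma, first leaf emerged) sprayed to run-off with compound in acetone/water with 110 ppm Triton X-100, or track-sprayed as EC with 0.1% Trycol 5941. Septoria tritici spores inoculated before or after treatment. Dew chambers, then 20 °C greenhouse. Percent disease control derived from severity (0–100%) relative to untreated plants.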

Assay [2] relates to Puccinia triticina; Synonym: Puccinia recondite f. sp. tritici. As to the kind of experiment: Wheat brown rust (PUCCRT) disease control on wheat seedlings. Conditions: for pest or weed control at 100 ppm / pest or weed control at 121.5 g/ha: Puccinia triticina; for pest or weed control at 121.5 g/ha: low volume application, 121.5 g/H; for pest or weed control at 100 ppm / PUCCRT 1DP disease control / PUCCRT 3DC disease control: 100 ppm. The procedure, abridged:
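Acetone solutions diluted in nine volumes of water with 110 ppm Triton X-100 sprayed to run-off on first-leaf Yuma wheat seedlings (track spray: EC with 0.1% Trycol 5941). Puccinia triticina spores inoculated before or after treatment; overnight dark dew at 22° C., 100% RH, then greenhouse at 24° C. for disease development.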

A further assay deals with Phakopsora pachyrhizi. Description: Asian soybean rust (PHAKPA) disease control. Particulars: topical, high volume. As to the method: Technical grades of materials were dissolved in acetone, which were then mixed with nine volumes of water containing 0.011% Tween 20. The fungicide solutions were applied onto soybean seedlings using an automated booth sprayer to run-off. All sprayed plants were allowed to air dry prior to further handling.
Soybean plants (variety Williams 82) were grown in soil-less Metro mix, with one plant per pot. Two weeks old seedlings were used for testing. Plants were inoculated either 3 days prior to or 1 day after fungicide treatments. Plants were incubated for 24 h in a dark dew room at 22° C. and 100% RH then transferred to a growth room at 23° C. for disease to develop. Disease severity was assessed on the sprayed leaves.

Setting [3] is: 24 h, High volume application, 1 Day Protectant, read-out: SEPTTR 1DP disease control.
Where [4] appears, read: 72 h, High volume application, 3 Day Curative, read-out: SEPTTR 3DC disease control.
Setting [5] is: 24 h, High volume application, 1 Day Protectant, read-out: PUCCRT 1DP disease control.
Where [6] appears, read: 72 h, High volume application, 3 Day Curative, read-out: PUCCRT 3DC disease control.
Setting [7] is: 24 h, 1 Day Protectant, read-out: Disease Control PHAKPA 1DP.
The mark [8] stands for this setting: 72 h, 3 Day Curative, read-out: Disease Control PHAKPA 3DC.
The mark [9] stands for this setting: High volume application, 1 Day Protectant.
[10] abbreviates: High volume application, 3 Day Curative.

Like-named read-outs stand apart in the source and are kept apart here. Some results are limits rather than exact numbers.

`COc1ccnc(C(=O)N[C@H]2CCC[C@H](OCC(C)C)[C@@H](OCCCC(F)(F)F)[C@H](C)OC2=O)c1OCOC(C)=O` [F44]: the pest or weed control at 100 ppm in assay [1] (setting [3]), in assay [1] (setting [4]), in assay [2] (setting [5]) and in assay [2] (setting [6]) was 80 to 100% each time. Moreover, in the assay with Phakopsora pachyrhizi (setting [7]), the pest or weed control at 25 ppm lay in the range of 80 to 100%.
For the molecule `CCCO[C@H]1[C@H](C)OC(=O)[C@@H](NC(=O)c2nccc(OC)c2OCOC(C)=O)CCC[C@@H]1OCC(C)C` [F45], the pest or weed control at 100 ppm in assay [1] (setting [3]), in assay [1] (setting [4]), in assay [2] (setting [5]) and in assay [2] (setting [6]) was 80 to 100% in each case. The pest or weed control at 25 ppm with Phakopsora pachyrhizi (setting [7]) and with Phakopsora pachyrhizi (setting [8]) was 80 to 100% in each case.
As for `COc1ccnc(C(=O)N[C@H]2CCC[C@H](OCC(C)C)[C@@H](OC(=O)C3CC3)[C@H](C)OC2=O)c1OCOC(C)=O` [F46], the pest or weed control at 100 ppm in assay [1] (setting [3]), in assay [1] (setting [4]), in assay [2] (setting [5]) and in assay [2] (setting [6]) was 80 to 100% throughout. Further, in the assay on Phakopsora pachyrhizi (setting [7]), the pest or weed control at 25 ppm fell in the range of 80 to 100%.
In the case of `CCCO[C@H]1[C@H](C)OC(=O)[C@@H](NC(=O)c2nccc(OC)c2OC(C)=O)CCC[C@@H]1OCC(C)C` [F47], the pest or weed control at 100 ppm in assay [1] (setting [3]), in assay [1] (setting [4]), in assay [2] (setting [5]) and in assay [2] (setting [6]) was 80 to 100% in each case. Moreover, the pest or weed control at 25 ppm with Phakopsora pachyrhizi (setting [7]) was under 0%.
Consider `COc1ccnc(C(=O)N[C@H]2CCC[C@H](OCC(C)C)[C@@H](OC/C=C/C(F)(F)F)[C@H](C)OC2=O)c1OCOC(C)=O` [F59], for which the pest or weed control at 100 ppm in assay [1] (setting [3]), in assay [1] (setting [4]), in assay [2] (setting [5]) and in assay [2] (setting [6]) was 80 to 100% each time. The pest or weed control at 25 ppm in the assay with Phakopsora pachyrhizi (setting [7]) was in the range of 80 to 100%.
On to `COc1ccnc(C(=O)N[C@H]2CCC[C@H](OC3CCCC3)[C@@H](OC3CCCC3)[C@H](C)OC2=O)c1OCOC(=O)C(C)C` [F76], for which the pest or weed control at 100 ppm in assay [1] (setting [3]), in assay [1] (setting [4]), in assay [2] (setting [5]) and in assay [2] (setting [6]) was 80 to 100% each time. In addition, the pest or weed control at 25 ppm in the assay with Phakopsora pachyrhizi (setting [7]) was 80 to 100%.
Consider `COc1ccnc(C(=O)N[C@H]2CCC[C@H](OC3CCCC3)[C@@H](OC3CCCC3)[C@H](C)OC2=O)c1OC(C)=O` [F77], for which the pest or weed control at 100 ppm in assay [1] (setting [3]), in assay [1] (setting [4]), in assay [2] (setting [5]) and in assay [2] (setting [6]) was 80 to 100% each time. In addition, the pest or weed control at 25 ppm with Phakopsora pachyrhizi (setting [7]) lay within 80 to 100%.
`COc1ccnc(C(=O)N[C@H]2CCC[C@H](OC3CCCC3)[C@@H](Oc3ccccc3)[C@H](C)OC2=O)c1OCOC(=O)C(C)C` [F79]: the pest or weed control at 100 ppm in assay [1] (setting [3]), in assay [1] (setting [4]), in assay [2] (setting [5]) and in assay [2] (setting [6]) was 80 to 100% each time. The pest or weed control at 25 ppm in the assay on Phakopsora pachyrhizi (setting [7]) is 80 to 100%.
As to `COc1ccnc(C(=O)N[C@H]2CCC[C@H](OC3CCCC3)[C@@H](Oc3ccccc3)[C@H](C)OC2=O)c1OC(C)=O` [F81], the pest or weed control at 100 ppm in assay [1] (setting [3]), in assay [1] (setting [4]), in assay [2] (setting [5]) and in assay [2] (setting [6]) was 80 to 100% each time. Also, the pest or weed control at 25 ppm with Phakopsora pachyrhizi (setting [7]) was in the range of 80 to 100%.
For the molecule `CCCO[C@H]1[C@H](C)OC(=O)[C@@H](NC(=O)c2nccc(OC)c2OCOC(C)=O)CCC[C@@H]1Oc1ccccc1` [F95], the pest or weed control at 100 ppm in assay [1] (setting [3]), in assay [1] (setting [4]), in assay [2] (setting [5]) and in assay [2] (setting [6]) was 80 to 100% throughout. For the same molecule, the pest or weed control at 25 ppm in the assay on Phakopsora pachyrhizi (setting [7]) and in the assay with Phakopsora pachyrhizi (setting [8]) was 80 to 100% in each case.
For the molecule `COc1ccnc(C(=O)N[C@H]2CCC[C@H](OCCCc3ccccc3)[C@@H](Oc3ccccc3)[C@H](C)OC2=O)c1OCOC(C)=O` [F133], the pest or weed control at 100 ppm in assay [1] (setting [3]), in assay [1] (setting [4]), in assay [2] (setting [5]) and in assay [2] (setting [6]) was 80 to 100% each time. The pest or weed control at 25 ppm in the assay with Phakopsora pachyrhizi (setting [7]) lay in the range of 80 to 100%; with Phakopsora pachyrhizi (setting [8]) it was 0 to 80%.
As for `COCCC(=O)Oc1c(OC)ccnc1C(=O)N[C@H]1CCC[C@H](Oc2ccccc2)[C@@H](OC(=O)C2CC2)[C@H](C)OC1=O` [F243], the pest or weed control at 100 ppm in assay [1] (24 h, Wheat Leaf Blotch, 1 Day Protectant, high volume application, read-out: Disease Control SEPTTR 1 DP 100 ppm) lay in the range of 80 to 100%; in assay [1] (72 h, Wheat Leaf Blotch, 3 Day Curative, high volume application, read-out: Disease Control SEPTTR 3 DC 100 ppm) it was 80 to 100%; in assay [2] (24 h, Wheat Brown Rust, 1 Day Protectant, high volume application, read-out: Disease Control PUCCRT 1 DP 100 ppm), 80 to 100%; in assay [2] (72 h, Wheat Brown Rust, 3 Day Curative, high volume application, read-out: Disease Control PUCCRT 3 DC 100 ppm), 80 to 100%. In addition, the pest or weed control at 121.5 g/ha in assay [1] (24 h, Wheat Leaf Blotch, 1 Day Protectant, read-out: Disease Control SEPTTR 1 DP 121.5 g/H) is 0 to 80%; in assay [1] (72 h, Wheat Leaf Blotch, 3 Day Curative, read-out: Disease Control SEPTTR 3 DC 121.5 g/H) it was 80 to 100%; in assay [2] (24 h, Wheat Brown Rust, 1 Day Protectant, read-out: Disease Control PUCCRT 1 DP 121.5 g/H), 80 to 100%; in assay [2] (72 h, Wheat Brown Rust, 3 Day Curative, read-out: Disease Control PUCCRT 3 DC 121.5 g/H) it was 80 to 100%. The pest or weed control at 25 ppm in the assay with Phakopsora pachyrhizi (setting [7]) was 80 to 100%; with Phakopsora pachyrhizi (setting [8]) it was 0 to 80%.
In the case of “N-[(3S,7S,8S,9S)-7,8-dibenzyloxy-9-methyl-2-oxo-oxonan-3-yl]-3-hydroxy-4-methoxypyridine-2-carboxamide [F15]”, the “SEPTTR 1DP disease control” value in assay [1] (setting [9]) is “A (80-100)”. The “SEPTTR 3DC disease control” value in assay [1] (setting [10]) is given as “A (80-100)”. Further, in assay [2] (setting [9]), the “PUCCRT 1DP disease control” value was “A (80-100)”. Moreover, in assay [2] (setting [10]), the “PUCCRT 3DC disease control” value is recorded as “A (80-100)”.
With “[2-[[(3S,7S,8S,9S)-7-(cyclopentoxy)-9-methyl-2-oxo-8-propoxy-oxonan-3-yl]carbamoyl]-4-methoxy-3-pyridyl]3-methoxypropanoate [F19]”, the “SEPTTR 1DP disease control” value in assay [1] (setting [9]) is recorded as “A (80-100)”. Besides, the “SEPTTR 3DC disease control” value in assay [1] (setting [10]) is on record as “A (80-100)”. Further, the “PUCCRT 1DP disease control” value in assay [2] (setting [9]) is recorded as “A (80-100)”. Further, the “PUCCRT 3DC disease control” value in assay [2] (setting [10]) is listed as “A (80-100)”.
For the molecule “[2-[[(3S,7S,8S,9S)-8-isobutoxy-9-methyl-7-(2-methylallyloxy)-2-oxo-oxonan-3-yl]carbamoyl]-4-methoxy-3-pyridyl]acetate [F18]”, the “SEPTTR 1DP disease control” value in assay [1] (setting [9]) is listed as “A (80-100)”. Besides, in assay [1] (setting [10]), the “SEPTTR 3DC disease control” value is given as “A (80-100)”. In addition, in assay [2] (setting [9]), the “PUCCRT 1DP disease control” value is given as “A (80-100)”. For the same molecule, the “PUCCRT 3DC disease control” value in assay [2] (setting [10]) is given as “A (80-100)”.
For the molecule “[4-methoxy-2-[[(3S,7S,8S,9S)-9-methyl-7,8-bis(2-methylallyloxy)-2-oxo-oxonan-3-yl]carbamoyl]-3-pyridyl]oxymethyl acetate [F16]”, in assay [1] (setting [9]), the “SEPTTR 1DP disease control” value is reported as “A (80-100)”. The “SEPTTR 3DC disease control” value in assay [1] (setting [10]) was “A (80-100)”. In assay [2] (setting [9]), the “PUCCRT 1DP disease control” value is “A (80-100)”. The “PUCCRT 3DC disease control” value in assay [2] (setting [10]) is given as “A (80-100)”.
Regarding “[4-methoxy-2-[[(3S,7S,8S,9S)-9-methyl-7,8-bis(2-methylallyloxy)-2-oxo-oxonan-3-yl]carbamoyl]-3-pyridyl]oxymethyl-2-methylpropanoate [F17]”, the “SEPTTR 1DP disease control” value in assay [1] (setting [9]) is recorded as “A (80-100)”. Moreover, the “SEPTTR 3DC disease control” value in assay [1] (setting [10]) is on record as “A (80-100)”. In assay [2] (setting [9]), the “PUCCRT 1DP disease control” value was “A (80-100)”. For the same molecule, in assay [2] (setting [10]), the “PUCCRT 3DC disease control” value was “A (80-100)”.
